Data from article PMC8179679 (Chemical Science, 2021).
Where no end group is shown, it is not given here.

Columns and labels:
[1] = target: MDM2 (residues 3–109) (Homo sapiens, UniProt Q00987); assay: aerolysin nanopore detection of peptide/MDM2 interaction; format: binding
[2] = target: aerolysin nanopore (Aeromonas hydrophila, UniProt P09167); assay: aerolysin nanopore single-channel recording of free analyte
[3] = system: E5-p53TAD1/MDM2 interaction; details: for number of translocation events, % of free E5-p53TAD1 peptide: molar ratio 1 : 3 : 5; for number of translocation events N after inhibitor addition: molar ratio 1 : 3 : 5 (peptide : MDM2 : inhibitor), 10 min-current trace
[4] = system: MDM2; details: method not stated; cited from earlier work

aerolysin nanopore, sequence (P09167 24-445 limits assumed): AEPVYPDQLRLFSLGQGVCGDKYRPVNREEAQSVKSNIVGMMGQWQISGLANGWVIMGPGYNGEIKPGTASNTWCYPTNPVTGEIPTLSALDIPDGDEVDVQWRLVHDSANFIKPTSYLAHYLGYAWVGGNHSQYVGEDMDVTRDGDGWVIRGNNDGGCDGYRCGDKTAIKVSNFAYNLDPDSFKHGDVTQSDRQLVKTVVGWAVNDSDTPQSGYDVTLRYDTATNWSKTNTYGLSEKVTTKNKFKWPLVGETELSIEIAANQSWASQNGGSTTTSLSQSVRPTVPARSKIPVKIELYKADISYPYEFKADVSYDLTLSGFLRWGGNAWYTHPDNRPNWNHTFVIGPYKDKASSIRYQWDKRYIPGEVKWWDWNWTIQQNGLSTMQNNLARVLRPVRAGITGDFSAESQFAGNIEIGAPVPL
MDM2 (residues 3–109), sequence (Q00987 3-109): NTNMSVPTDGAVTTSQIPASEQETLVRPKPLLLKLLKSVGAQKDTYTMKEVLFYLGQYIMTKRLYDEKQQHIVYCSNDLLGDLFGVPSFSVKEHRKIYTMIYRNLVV

EEEEESQETFSDLWKLLPEN [E5-p53TAD1]
Kd [1]: 1070 ± 90 nM
dwell time of extraordinarily long-lived current blockage ([1]; E5-p53TAD1/MDM2 complex, 140 mV): 0.1 s ∼ tens of min
number of nanopore events N ([2]; free E5-p53TAD1 peptide, 10 min-current trace): 1573
dwell time of short-lived translocation / nanopore events ([2]; free peptide): < 10^2 ms
mean dwell time td ([2]; free peptide, 140 mV, single exponential fit): ~0.8 ms

CC(C)[C@@H](CS(=O)(=O)C(C)C)N1C(=O)[C@@](C)(CC(=O)O)C[C@H](c2cccc(Cl)c2)[C@H]1c1ccc(Cl)cc1 [AMG232]
number of translocation events, % of free E5-p53TAD1 peptide [3]: ~99.8%
number of translocation events N after inhibitor addition [3]: 1570

COc1ccc(C2=N[C@@H](c3ccc(Cl)cc3)[C@@H](c3ccc(Cl)cc3)N2C(=O)N2CCNC(=O)C2)c(OC(C)C)c1 [Nutlin-3]
number of translocation events, % of free E5-p53TAD1 peptide [3]: ~61.3%
number of translocation events N after inhibitor addition [3]: 965

CN[C@@H](C)C(=O)N[C@H](C(=O)N1CCC[C@H]1c1nc(C(=O)c2ccc(F)cc2)cs1)C1CCCCC1 [LCL161]
MDM2 binding (in words) [4]: does not bind to MDM2
